Reference: patent US20110021623A1, “SYSTEM AND METHODS OF MELANOMA PREVENTION” (Regents of the University of New Mexico, priority 2006, published 2011)
Where two headings read alike, the source gives them in different places.

How the values were obtained:
[1] = tested on: mouse melanocyte cell line (B16); experiment: DNA adduct assay (13C tyrosine enrichment, isotope ratio mass spectrometry); assay type: cell-based; conditions: B16 cells, 300 μM PTU immediately after 20 min full spectrum UV, 5 μM 13C tyrosine 1 hour after UV, DNA isolated after 4 hours
Experimental: FIG. 4 is a graph illustrating a DNA adduct assay. Mouse melanocyte cell line (B16) was incubated with 300 μM phenylthiourea (PTU) immediately after ultraviolet (UV) radiation exposure. After 20 minutes of full spectrum ultraviolet (UV) radiation exposure, 5 μM ^13C tyrosine was added 1 hour after ultraviolet (UV) radiation exposure. After 4 hours, DNA was isolated and adducts determined as an increase in ^13C enrichment over baseline after combustion and isotope ratio mass spectrometry.

[2] = tested on: mouse melanocyte cell line (B16); experiment: Melanocyte survival by trypan blue exclusion after solar simulated UV exposure; assay type: cell-based; conditions: for Melanocyte survival (viability) in ultraviolet (UV) exposed cells: 20 min solar simulated UV (~15 MEDS), increasing doses of inhibitor after exposure, trypan blue exclusion 24 hours after UV
Experimental: FIG. 3 is a graph illustrating death of melanocytes with tyrosinase inhibitors applied subsequent to ultraviolet (UV) radiation exposure. The graph illustrates results from a study conducted with mice melanocyte cell line (B16). The mouse melanocyte cell line (B16) was exposed to solar simulated ultraviolet (UV) radiation for 20 minutes. The solar ultraviolet (UV) radiation was simulated using a 300 W Xe solar simulator, equivalent to approximately 15 Minimal Erythemal Doses (MEDS), or equivalent to strong sunburn. After ultraviolet (UV) radiation exposure, cells were treated with increasing doses of the following tyrosinase inhibitors: kojic acid (shown in FIG. 3A) and methyl gentisate (shown in FIG. 3B). Melanocyte survival was determined by trypan blue exclusion 24 hours after ultraviolet (UV) radiation exposure. It was shown that there was no effect of tyrosinase inhibitors on the survival in non-ultraviolet (UV) exposed cells (not shown in FIG. 3). […] Preventing quinones from passing out of the melanosome substantially protects melanocytes from DNA damage.

SMILES	DNA adducts (13C enrichment over baseline, delta value) [1]	Melanocyte survival (viability) in ultraviolet (UV) exposed cells ([2]; B16 cells)	Melanocyte survival in non-ultraviolet (UV) exposed cells ([2]; B16 cells, no UV exposure, trypan blue exclusion)	Melanocyte survival in non-ultraviolet (UV) exposed cells [2]
NC(=S)Nc1ccccc1 [PTU, phenylthiourea]	greatly decreases DNA adducts			
O=c1cc(CO)occ1O [kojic acid]		dose dependent increase in viability	no effect	
COC(=O)c1cc(O)ccc1O [methyl gentisate]		dose dependent increase in viability		no effect
